The text below walks through data of patent US8754079B2, “Cycloalkyl containing thienopyrimidines for pharmaceutical compositions” (Boehringer Ingelheim International GmbH, priority 2010, dated 2014).

The target in the assay is T1, MNK2 (Homo sapiens, UniProt Q9HBH9).
T1 construct: the open reading frames of human Mnk1 and Mnk2a were amplified from cDNA; made in house; host or cells: E. coli BL21
The assay can be described thus: Mnk2a in vitro kinase assay (indirect fluorescence polarization). The following applies: pre-activated GST-Mnk2a 2.5 nM, 20 μM ATP, 30 μM substrate peptide. Type of assay: biochemical. The method in brief:
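Human GST-Mnk2a was expressed in E. coli and activated in vitro with 150 nM pre-activated ERK2 and 50 μM ATP in HEPES pH 7.4/MgCl2 buffer (45 min, 30 °C). Activity on an eIF4E Ser209-derived 12mer peptide was read by competitive fluorescence polarization with a phospho-specific antibody.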

T1 sequence (Q9HBH9 whole entry): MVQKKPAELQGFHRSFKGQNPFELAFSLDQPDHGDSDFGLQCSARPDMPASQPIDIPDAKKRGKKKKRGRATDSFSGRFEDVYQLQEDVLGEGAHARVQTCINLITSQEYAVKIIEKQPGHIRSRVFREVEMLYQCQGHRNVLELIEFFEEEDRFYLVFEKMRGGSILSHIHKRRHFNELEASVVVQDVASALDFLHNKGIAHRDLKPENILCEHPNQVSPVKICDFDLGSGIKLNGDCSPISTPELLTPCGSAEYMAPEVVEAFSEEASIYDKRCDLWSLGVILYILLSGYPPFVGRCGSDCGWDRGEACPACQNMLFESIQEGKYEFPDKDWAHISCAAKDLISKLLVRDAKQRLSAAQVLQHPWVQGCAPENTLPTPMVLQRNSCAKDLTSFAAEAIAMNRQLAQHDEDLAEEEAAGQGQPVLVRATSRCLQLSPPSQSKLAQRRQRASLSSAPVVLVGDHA

Molecule `CCNC(=O)c1sc2ncnc(Nc3ccc(F)cc3O[C@H]3C[C@H](NC(C)=O)C3)c2c1C` [Example 37] gave an IC50 of 0.069 µM.

As to `CONC(=O)c1sc2ncnc(Nc3ccc(F)cc3O[C@H]3C[C@H](NC(C)=O)C3)c2c1C` [Example 38], it took 0.07 µM to reach half-maximal inhibition (IC50).

In turn, `CC(=O)N[C@H]1C[C@H](Oc2cc(F)ccc2Nc2ncnc3sc(C(=O)NCCCN4CCCC4)c(C)c23)C1` [Example 39] returned an IC50 of 0.061 µM.

For `CC(=O)N[C@H]1C[C@H](Oc2cc(F)ccc2Nc2ncnc3sc(C(=O)NC4CCN(C)CC4)c(C)c23)C1` [Example 40], half-maximal inhibition (IC50) required 0.04 µM.

In turn, `CC(=O)N[C@H]1C[C@H](Oc2cc(F)ccc2Nc2ncnc3sc(C(=O)NCCO)c(C)c23)C1` [Example 41] came in with an IC50 of 0.152 µM.

As to `CO[C@H]1CCCC[C@@H]1Oc1cc(F)ccc1Nc1ncnc2sc(C(N)=O)c(C)c12` [Example 42, 4-[4-Fluoro-2-((1S,2S)-2-methoxy-cyclohexyloxy)-phenylamino]-5-methyl-thieno[2,3-d]pyrimidine-6-carboxylic acid amide], half-maximal inhibition (IC50) required 0.14 µM.

For `CO[C@H]1CCCC[C@@H]1Oc1cc(F)ccc1Nc1ncnc2sc(C(=O)NCCCN(C)C)c(C)c12` [Example 43, 4-[4-Fluoro-2-((1S,2S)-2-methoxy-cyclohexyloxy)-phenylamino]-5-methyl-thieno[2,3-d]pyrimidine-6-carboxylic acid (3-dimethylamino-propyl)-amide], the IC50 was 0.36 µM.

In turn, `Cc1c(C(N)=O)sc2ncnc(Nc3ccc(F)cc3O[C@H]3CCCC[C@@H]3O)c12` [Example 51, 4-[4-Fluoro-2-((1S,2S)-2-hydroxy-cyclohexyloxy)-phenylamino]-5-methyl-thieno[2,3-d]pyrimidine-6-carboxylic acid amide] gave a half-maximal inhibitory concentration (IC50) of 0.013 µM.

`Cc1c(C(N)=O)sc2ncnc(Nc3ccc(F)cc3O[C@@H]3CCCC[C@H]3O)c12` [Example 52, 4-[4-Fluoro-2-((1R,2R)-2-hydroxy-cyclohexyloxy)-phenylamino]-5-methyl-thieno[2,3-d]pyrimidine-6-carboxylic acid amide]: half-maximal inhibition (IC50) required 0.03 µM.

`Cc1c(C(=O)NCCCN(C)C)sc2ncnc(Nc3ccc(F)cc3O[C@@H]3CCCC[C@H]3O)c12` [Example 53, 4-[4-Fluoro-2-((1R,2R)-2-hydroxy-cyclohexyloxy)-phenylamino]-5-methyl-thieno[2,3-d]pyrimidine-6-carboxylic acid (3-dimethylamino-propyl)-amide]: the IC50 came out at 0.054 µM.

As to `COCCNC(=O)c1sc2ncnc(Nc3ccc(F)cc3O[C@@H]3CCCC[C@H]3O)c2c1C` [Example 54, 4-[4-Fluoro-2-((1R,2R)-2-hydroxy-cyclohexyloxy)-phenylamino]-5-methyl-thieno[2,3-d]pyrimidine-6-carboxylic acid (2-methoxy-ethyl)-amide], half-maximal inhibition (IC50) was put at 0.062 µM.

With `Cc1c(C(=O)NCCCN2CCCC2)sc2ncnc(Nc3ccc(F)cc3O[C@H]3CCC[C@H](O)C3)c12` [Example 75], the half-inhibitory concentration (IC50) was found to be 0.018 µM.

Molecule `COC1CCCC(Oc2cc(F)ccc2Nc2ncnc3sc(C(=O)NCC#CCN)c(C)c23)C1` (stereo not drawn) [Example 80] had an IC50 of 0.031 µM.

`COC1CCCC(Oc2cc(F)ccc2Nc2ncnc3sc(C(=O)NCCCCO)c(C)c23)C1` (stereo not drawn) [Example 81] had a half-inhibitory concentration (IC50) of 0.098 µM.

`COC1CCCC(Oc2cc(F)ccc2Nc2ncnc3sc(C(=O)NCC4COCCN4)c(C)c23)C1` (stereo not drawn) [Example 84]: the 50% inhibitory concentration (IC50) is 0.091 µM.

For `COC1CCCC(Oc2cc(F)ccc2Nc2ncnc3sc(C(=O)NC4CCN(C)CC4)c(C)c23)C1` (stereo not drawn) [Example 86], the concentration for half-maximal inhibition (IC50) turned out to be 0.093 µM.

As to `COC1CCCC(Oc2cc(F)ccc2Nc2ncnc3sc(C(=O)NCCCN4CCCC4)c(C)c23)C1` (stereo not drawn) [Example 87], the half-inhibitory concentration (IC50) was found to be 0.038 µM.

On to `COC1CCCC(Oc2cc(F)ccc2Nc2ncnc3sc(C(=O)NC4CC4N)c(C)c23)C1` (stereo not drawn) [Example 90], for which half-maximal inhibition (IC50) required 0.034 µM.

`COC1CCCC(Oc2cc(F)ccc2Nc2ncnc3sc(C(=O)NCC#N)c(C)c23)C1` (stereo not drawn) [Example 94] gave an IC50 of 0.021 µM.

Molecule `COC1CCCC(Oc2cc(F)ccc2Nc2ncnc3sc(C(=O)NCC#CCN(C)C)c(C)c23)C1` (stereo not drawn) [Example 96] showed an IC50 of 0.014 µM.

`COC1CCCC(Oc2cc(F)ccc2Nc2ncnc3sc(C(=O)NCC4COCCN4)c(C)c23)C1` (stereo not drawn) [Example 99] registered an IC50 of 0.036 µM.

In turn, `COC1CCCC(Oc2cc(F)ccc2Nc2ncnc3sc(C(=O)NC4CCN(C)CC4)c(C)c23)C1` (stereo not drawn) [Example 102] showed an IC50 of 0.034 µM.

As for `COC1CCCC(Oc2cc(F)ccc2Nc2ncnc3sc(C(=O)NCc4cn(C)cn4)c(C)c23)C1` (stereo not drawn) [Example 107], the 50% inhibitory concentration (IC50) worked out at 0.018 µM.

Consider `COC1CCCC(Oc2cc(F)ccc2Nc2ncnc3sc(C(=O)NCCCN(C)C)c(C)c23)C1` (stereo not drawn) [Example 108], for which half-maximal inhibition (IC50) required 0.019 µM.

Molecule `COC1CCCC(Oc2ncccc2Nc2ncnc3sc(C(=O)NCC#N)c(C)c23)C1` (stereo not drawn) [Example 115] showed an IC50 of 0.019 µM.

Turning to `COC1CCCC(Oc2ncccc2Nc2ncnc3sc(C(=O)NCC#CCN(C)C)c(C)c23)C1` (stereo not drawn) [Example 117], the IC50 was found to be 0.012 µM.

As to `COC1CCCC(Oc2ncccc2Nc2ncnc3sc(C(=O)NC4CCN(C)CC4)c(C)c23)C1` (stereo not drawn) [Example 123], the IC50 worked out at 0.026 µM.

`Cc1c(C(N)=O)sc2ncnc(Nc3ccc(F)cc3O[C@H]3CC[C@@H](O)CC3)c12` [Example 150] showed a half-maximal inhibitory concentration (IC50) of 0.011 µM.

The molecule `Cc1c(C(=O)NCCCN(C)C)sc2ncnc(Nc3ccc(F)cc3O[C@H]3CC[C@@H](O)CC3)c12` [Example 151, 4-[4-Fluoro-2-(cis-4-hydroxy-cyclohexyloxy)-phenylamino]-5-methyl-thieno[2,3-d]pyrimidine-6-carboxylic acid (3-dimethylamino-propyl)-amide] gave a 50% inhibitory concentration (IC50) of 0.036 µM.

As to `Cc1c(C(=O)NCCCN(C)C)sc2ncnc(Nc3ccc(F)cc3O[C@H]3CC[C@H](O)CC3)c12` [Example 152, 4-[4-Fluoro-2-(trans-4-hydroxy-cyclohexyloxy)-phenylamino]-5-methyl-thieno[2,3-d]pyrimidine-6-carboxylic acid (3-dimethylamino-propyl)-amide], 0.011 µM corresponded to half-maximal inhibition (IC50).

`Cc1c(C(=O)NCCCN2CCCC2)sc2ncnc(Nc3ccc(F)cc3O[C@H]3CC[C@H](O)CC3)c12` [Example 153, 4-[4-Fluoro-2-(trans-4-hydroxy-cyclohexyloxy)-phenylamino]-5-methyl-thieno[2,3-d]pyrimidine-6-carboxylic acid (3-pyrrolidin-1-yl-propyl)-amide] registered a concentration for half-maximal inhibition (IC50) of 0.009 µM.

Molecule `Cc1c(C(=O)NCCO)sc2ncnc(Nc3ccc(F)cc3O[C@H]3CC[C@H](O)CC3)c12` [Example 155] yielded an IC50 of 0.009 µM.

As to `Cc1c(C(=O)NCCCn2ccnc2)sc2ncnc(Nc3ccc(F)cc3O[C@H]3CC[C@H](O)CC3)c12` [Example 156], inhibition was half-maximal at 0.013 µM (IC50).

`Cc1c(C(N)=O)sc2ncnc(Nc3ccc(F)cc3O[C@H]3CC[C@H](O)CC3)c12` [Example 158, 4-[4-Fluoro-2-(trans-4-hydroxy-cyclohexyloxy)-phenylamino]-5-methyl-thieno[2,3-d]pyrimidine-6-carboxylic acid amide] had an IC50 of 0.004 µM.

`Cc1c(C(=O)N[C@H]2C[C@@H]2N)sc2ncnc(Nc3ccc(F)cc3O[C@H]3CC[C@H](O)CC3)c12` [Example 159] showed an IC50 of 0.016 µM.

For the molecule `Cc1c(C(=O)NCC#CCN)sc2ncnc(Nc3ccc(F)cc3O[C@H]3CC[C@H](O)CC3)c12` [Example 160], the IC50 was 0.006 µM.
